PubChem BioAssay (NCI)
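Assay format: 96-well plates, 48-hour exposure. GI50 is the concentration that inhibits growth by half. TGI: concentration producing complete growth inhibition.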

Assays:
Test in all cases: DTP human tumour cell line panel, 48 h
MDA-N = tested on: MDA-N
A549 NSCLC = tested on: A549 NSCLC
LOX IMVI melanoma = tested on: LOX IMVI melanoma
786-0 renal = tested on: 786-0 renal
SK-MEL-2 melanoma = tested on: SK-MEL-2 melanoma
PC-3 prostate = tested on: PC-3 prostate
DU-145 prostate = tested on: DU-145 prostate
HOP-62 NSCLC = tested on: HOP-62 NSCLC
NCI/ADR-RES ovarian = tested on: NCI/ADR-RES ovarian
SF-539 CNS = tested on: SF-539 CNS
SF-295 CNS = tested on: SF-295 CNS

Row | Structure (SMILES) | TGI (MDA-N) [µM] | TGI (A549 NSCLC) [µM] | TGI (LOX IMVI melanoma) [µM] | TGI (786-0 renal) [µM] | TGI (SK-MEL-2 melanoma) [µM] | TGI (PC-3 prostate) [µM] | TGI (DU-145 prostate) [µM] | TGI (HOP-62 NSCLC) [µM] | TGI (NCI/ADR-RES ovarian) [µM] | TGI (SF-539 CNS) [µM] | TGI (SF-295 CNS) [µM] | GI50 (LOX IMVI melanoma) [µM] | GI50 (SK-MEL-2 melanoma) [µM]
1 | COC1C(O)CC(OC2C(C)OC(Oc3cc(O)c4c(O)c5c(cc4c3)C[C@@H]([C@H](OC)C(=O)[C@@H](O)[C@@H](C)O)[C@H](OC3CC(OC4CC(OC6CC(C)(O)C(O)C(C)O6)C(O)C(C)O4)C(O)C(C)O3)C5=O)CC2OC(C)=O)OC1C (stereo partly drawn) | > 100 | > 100 | > 100 | > 100 | > 100 | > 100 | > 100 | > 100 | > 100 | > 100 | – | – | –
2 | COC(=O)CCCc1ccc2c(c1)CC1(C2)Cc2cc3c(cc2C1)CCCC3 | 42.3 | 67.7 | 72.1 | > 100 | 57.1 | > 100 | – | > 100 | > 100 | > 100 | > 100 | – | –
3 | CN1CC2=C(OC(N)=C(C#N)C2c2cccs2)/C(=C/c2cccs2)C1 (stereo not drawn) | > 47.3 | > 75.2 | > 63.3 | > 69.9 | > 64.4 | > 60.5 | 81.7 | 51.9 | 23.6 | > 100 | > 100 | – | –
4 | CCN(CC)Cc1nc2sc3c(c2c(=O)n1-c1ccccc1)CCCC3 | 58 | 55 | 28.7 | 32.2 | 38.6 | 34 | 47.8 | 86.7 | 62.1 | – | 66.3 | – | –
5 | Cc1ccc(C)n2c1nc1ccc3ccccc3c12 | > 100 | > 100 | – | > 100 | – | > 100 | > 100 | > 100 | > 100 | > 100 | > 100 | – | –
6 | COc1cc(OC)c2c(O)cc(CC(C)O)cc2c1 (stereo not drawn) | – | > 100 | > 100 | > 100 | > 100 | – | – | > 100 | – | > 100 | > 100 | – | –
7 | COc1ccc2[nH]c3c(c2c1)CCN(C)CC3 | – | > 100 | > 100 | > 100 | > 100 | – | – | > 100 | – | > 100 | > 100 | – | –
8 | CCC(C)[C@H](NC(=O)N[C@H](C)c1ccccc1)C(=O)OC (stereo partly drawn) | > 100 | > 100 | > 100 | > 100 | > 100 | > 100 | > 100 | > 100 | – | > 100 | > 100 | – | –
9 | CC1OC(OCC2OC(Oc3c(-c4ccc(O)cc4)oc4cc(O)cc(O)c4c3=O)C(OC3OCC(O)(CO)C3O)C(O)C2O)C(O)C(O)C1O (stereo not drawn) | – | > 100 | > 100 | > 100 | > 100 | – | – | > 100 | – | > 100 | > 100 | – | –
10 | CCNC(=O)Nc1cccc(C)n1 | > 100 | > 100 | – | > 100 | – | > 100 | > 100 | > 100 | – | > 100 | > 100 | – | –
11 | CN(C)c1ccc(/C=N/Nc2nc3ccccc3c(=O)n2-c2ccccc2)cc1 | > 100 | > 100 | > 100 | 83.3 | – | > 100 | > 100 | 97.8 | > 100 | 72 | > 100 | – | –
12 | S=C1c2ccccc2NC(=NC2CCCC2)C2CSCN12 (stereo not drawn) | – | > 100 | > 100 | > 100 | > 100 | > 100 | > 100 | > 100 | > 100 | – | > 100 | – | –
13 | C=CCC(C)C12CCNC(Cc3ccc(O)cc31)C2C (stereo not drawn) | – | > 100 | > 100 | > 100 | – | – | > 100 | > 100 | > 100 | > 100 | > 100 | – | –
14 | COC(=O)C12Oc3ccc(-c4ccc5c(c4O)C(=O)C4=CCC(C)C(O)C4(C(=O)OC)O5)c(O)c3C(=O)C1=CCC(C)C2O (stereo not drawn) | – | 6.59 | 2.67 | 2.98 | 2.82 | – | – | 4.12 | – | 11.9 | 6.05 | – | –
15 | Brc1ccc(N=NN2CCCCC2)cc1 | > 100 | – | > 100 | > 100 | 45.4 | > 100 | > 100 | > 100 | > 100 | > 100 | > 100 | – | –
16 | CC(=O)C1CC(C)=CCC12C(=O)Nc1ccccc12 (stereo not drawn) | – | > 100 | > 100 | > 100 | > 100 | – | – | > 100 | – | > 100 | > 100 | – | –
17 | Cc1ccc(C(=O)N(C2CCCCC2)C2CCCCC2)cc1N=NN(C)C | 28.3 | 31.8 | 30.2 | 28.7 | 7.29 | 22.2 | – | 25.2 | 47.8 | 37.2 | 23.5 | – | –
18 | CC(=O)C(C(C)=O)=C1CCCC(O)O1 (stereo not drawn) | – | > 100 | – | > 100 | – | – | > 100 | > 100 | > 100 | > 100 | > 100 | – | –
19 | CC(=O)NCCCCNCCCNC(C)=O | > 100 | > 100 | > 100 | > 100 | – | – | > 100 | – | > 100 | > 100 | > 100 | – | –
20 | Cn1ccnc1S/C(=C\C=C(C#N)C#N)c1ccc(Cl)cc1 | – | 22.6 | 0.443 | 5.21 | > 45.5 | 9.22 | 10.9 | 11.1 | 7.85 | 6.58 | 11.3 | 0.0671 | 5.38
21 | O=c1c2ccccc2[nH]c(=S)n1-c1ccc(Br)cc1 | – | > 100 | > 100 | > 100 | > 100 | – | – | > 100 | – | > 100 | > 100 | – | –
22 | CCc1cccc(C(C)C)c1NC(=O)C(=O)C(Cc1nc2ccccc2[nH]c1=O)C(=O)OC (stereo not drawn) | – | > 100 | > 100 | > 100 | > 100 | – | – | > 100 | – | > 100 | > 100 | – | –
23 | CCOC/N=C(/N)NC#N | – | > 100 | 27.1 | 56.2 | > 100 | – | – | > 100 | – | > 100 | > 100 | – | –
